The values that follow come from patent US20120294826A1, “METHODS, KITS AND COMPOSITIONS FOR AMELIORATING ADVERSE EFFECTS ASSOCIATED WITH TRANSFUSION OF AGED RED BLOOD CELLS” (priority 2009, published 2012).

For data set [1], the system named is E. coli. As to the kind of experiment: In vitro bacterial growth in plasma from transfused mice. It is filed as cell-based. The protocol:
Results shown in FIG. 15A are representative of two experiments. C57BL/6 mice were infused with a sub-clinical dose of LPS (E. coli 0111:B4; 30 μg per mouse by tail vein injection) followed by transfusion of 400 μL of fresh RBCs or stored RBCs. Mice were sacrificed at 24-hour post-transfusion and plasma cytokines measured (n=5 per group). *P=0.008, **P=0.003 as compared to mice infused LPS+ stored RBCs. To obtain the results shown in FIG. 15B, plasma (100 μL) was obtained from mice 2-hours post-transfusion with 400 μL of fresh RBCs (n=15), stored RBCs (n=24), stored RBC-derived supernatant (n=12), washed stored RBCs (n=13), or ghosts prepared from stored RBCs (n=8). Plasma was also obtained from control untransfused mice (n=14) or 24-hours post-transfusion with stored RBCs (n=8). Samples were incubated at 37° C. with shaking with about 1×10^6 CFU of E. coli, as labeled. Bacterial growth was monitored every 30 minutes by absorbance at 600 nm for up to 5 hours. […] To obtain the results shown in FIG. 15C, pooled plasma samples (100 μL) from mice 2 hours after transfusion with 400 μL of fresh RBCs or stored RBCs were supplemented with either ferric citrate (20 μM), sodium citrate (20 μM), bovine serum albumin (BSA; 80 μM), or protoporphyrin IX (20 μM), and then incubated at 37° C. with shaking with ˜1×10^6 CFU of E. coli. Bacterial growth was monitored every 30 minutes by absorbance at 600 nm for up to 5 hours in replicates of 5 per group. […] To obtain the results shown in FIG. 15D, pooled plasma (n=4) were incubated with the iron chelator, DFO (20 μM), or with the iron-chelated form of DFO, ferroxamine (FO) (20 μM) and inoculated with E. coli as shown for the previous experiment. […] To obtain the results shown in FIG. 15E, pooled plasma (n=5) was incubated with the iron chelator, 2,2′-dipyridyl (400 μM), with or without ferric citrate (133 μM) and inoculated with E. coli, as shown for the previous experiment. […] Results are representative of at least 2 experiments and are shown as mean (±SEM). Note that the absence of an error bar is indicative of highly reproducible replicates with pooled plasma.
A pathogenic strain of E. coli, obtained from an anonymous patient with a urinary tract infection, was used. For each experiment, a sample from a frozen stock of this E. coli was inoculated into Nutrient Broth (Difco, BD Biosciences) and grown to mid-log phase (about 3 hours). Bacteria were then washed twice in PBS and re-suspended to about 200,000 colony forming units (CFU)/μL. Five microliters of bacterial suspension were then added to 100 μL of heparinized plasma in a 96-well EIA/RIA plate (Costar, Sigma). Bacterial growth was measured by absorbance at 600 nm. In some experiments, 20 μM of ferric citrate or sodium citrate (Sigma), bovine serum albumin, 2,2′-dipyridyl (all from Sigma-Aldrich), protoporphyrin IX (Frontier Scientific, Logan, Utah), or DFO were added to plasma before bacterial inoculation.
Significance between two means was calculated using a two-tailed Mann-Whitney U test. Significance relevant to bacterial growth in vitro was determined by converting each growth curve to an area under the curve (AUC) value followed by a 2-tailed Mann-Whitney U test to compare mean AUC for each group. A value for P less than 0.05 was considered significant. Statistical analysis was performed using Prism 5 (GraphPad Software, Inc., La Jolla, Calif.).

For data set [2] the following is noted: in vivo; cited from earlier work.
The test system of data set [3] is pro-inflammatory response induced by stored RBC transfusions. As to the kind of experiment: DFO or FO infusion immediately before stored RBC transfusion, plasma cytokine/chemokine levels (FIG. 16A, 19). It counts as in vivo, mice. As to conditions: 2 hours. The protocol:
To obtain the results shown in FIG. 16A, mice were pretreated with a PBS vehicle control (n=28) or with 3 mg of DFO, with (n=15) or without (n=31) the addition of equimolar ferric citrate, immediately before transfusion with stored RBCs (400 μL). Mice were sacrificed 2 hours after transfusion, and plasma cytokine levels were measured; *P<0.05; **P<0.01; ***P<0.001 compared with mice infused with PBS vehicle and transfused stored RBCs. To obtain the results shown in FIG. 16B, bioluminescence was quantified for 24 hours after transfusion over the hepatosplenic region of SAA1-luciferase reporter mice transfused with 200 μL of fresh RBCs (n=3; •), the PBS vehicle control and stored RBCs (n=3; ▪), or 3 mg of DFO and stored RBCs (n=6; ▴); P=0.095 at 4 and 6 hours after transfusion comparing vehicle-treated and DFO-treated mice. […]
Mice were untreated or pretreated with 3 mg of DFO immediately before stored RBC transfusion (400 μL; n=14 per group). Mice were sacrificed 2-hours post-transfusion and plasma cytokine/chemokine levels measured. […]
RBCs (200 or 400 μL at 17.0-17.5 g/dL of hemoglobin; 1 or 2 equivalent human units, respectively) were transfused through the retro-orbital plexus of isoflurane-anesthetized mice. […] Survival was calculated by comparing the ratio of Dil- to DiO-labeled RBCs in the sample to the ratio in the transfuse itself. […]

In data set [4] the test system is TNF-α. As to conditions: LPS-challenged mice; reference [119]; cited from earlier work.
Where [5] appears, read: added to pooled plasma from mice transfused with fresh RBCs, 20 μM (bovine serum albumin 80 μM).

Turning to `c1ccc(-c2ccccn2)nc1` [2,2′-dipyridyl], the bacterial growth result in data set [1] (2,2′-dipyridyl 400 μM in pooled plasma from mice transfused with stored RBCs) is “greater inhibition of bacterial growth”. For the same compound, in data set [1] (2,2′-dipyridyl preincubated with a one-third molar ratio of ferric citrate (133 μM)), the “inhibitory effect on bacterial growth” value is given as “abrogated”. As for `CC(=O)N(O)CCCCCNC(=O)CCC(=O)N(O)CCCCCNC(=O)CCC(=O)N(O)CCCCCN` [DFO, deferoxamine], the t1/2 in data set [2] was 6 h. For the same compound, the “plasma IL-6 levels” value in data set [3] (3 mg (about 120 mg/kg) DFO i.v. immediately before stored RBCs, mean±s.e.m., without DFO 212.8±30.8, P=0.005) was determined as 98.4 ± 10.1 pg/mL. Consider `CC(=O)N([O-])CCCCCNC(=O)CCC(=O)N([O-])CCCCCNC(=O)CCC(=O)N([O-])CCCCCN.[Fe+3]` [FO, ferroxamine], for which, in data set [4], the TNF-α levels result is given as “reduced TNF-α levels to a similar extent”. For the same compound, the bacterial growth result in data set [1] (20 μM added to pooled plasma from mice transfused with stored RBCs, absorbance at 600 nm up to 5 hours) was “prevented the inhibition of bacterial growth”. Besides, the proinflammatory cytokine response result in data set [3] (3 mg DFO, or FO (equimolar DFO and ferric citrate), before stored RBCs (400 μL)) is reported as “as effective as DFO”. `O=C(O)c1ccc(-n2nc(-c3ccccc3O)nc2-c2ccccc2O)cc1` [deferasirox]: the t1/2 in data set [2] was 8 to 16 h.

Consider `O=C([O-])CC(O)(CC(=O)[O-])C(=O)[O-].[Na+].[Na+].[Na+]` [sodium citrate], for which, in data set [1] (setting [5]), the bacterial growth entry was “not”. For the compound “bovine serum albumin: bovine serum albumin control supplement”, the bacterial growth entry in data set [1] (setting [5]) is reported as “not”. Regarding ferric citrate [iron citrate], the bacterial growth result in data set [1] (setting [5]) is reported as “promoted to a similar level as in plasma from mice transfused with stored RBCs”.
